Laboratory results taken from ChEMBL document CHEMBL1201862, “PubChem BioAssay data set” (2004).
The source made the active and inactive calls.

Columns and labels:
Candida albicans = test: reversal of fluconazole resistance in C. albicans, dose response, CaCi-2 strain, Alamar Blue, dry powder, set 3 (AID 488907); assay type: functional, organism-based
INS1 = test: beta cell apoptosis inhibitors, cytokine rescue, dose response, luminescence, retest (AID 449756); assay type: functional, cell-based; settings: Rattus norvegicus;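 note: cell death triggered by IL-1 beta plus TNF-alpha plus IFN-gamma mixture; protective hits raise ATP signal compared with cytokine alone wells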
Fatty acid synthase [1] = molecular target: T1, Fatty acid synthase (Homo sapiens, UniProt P49327); test: FAS thioesterase domain inhibitors, dose response, biochemical, kinetic fluorescence intensity (AID 624326); assay type: functional;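 note: rate of fluorescence rise from hydrolysis of a fluorogenic O-methyl fluorescein ester substrate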
T1 sequence (P49327 whole entry, the tested form may be a part): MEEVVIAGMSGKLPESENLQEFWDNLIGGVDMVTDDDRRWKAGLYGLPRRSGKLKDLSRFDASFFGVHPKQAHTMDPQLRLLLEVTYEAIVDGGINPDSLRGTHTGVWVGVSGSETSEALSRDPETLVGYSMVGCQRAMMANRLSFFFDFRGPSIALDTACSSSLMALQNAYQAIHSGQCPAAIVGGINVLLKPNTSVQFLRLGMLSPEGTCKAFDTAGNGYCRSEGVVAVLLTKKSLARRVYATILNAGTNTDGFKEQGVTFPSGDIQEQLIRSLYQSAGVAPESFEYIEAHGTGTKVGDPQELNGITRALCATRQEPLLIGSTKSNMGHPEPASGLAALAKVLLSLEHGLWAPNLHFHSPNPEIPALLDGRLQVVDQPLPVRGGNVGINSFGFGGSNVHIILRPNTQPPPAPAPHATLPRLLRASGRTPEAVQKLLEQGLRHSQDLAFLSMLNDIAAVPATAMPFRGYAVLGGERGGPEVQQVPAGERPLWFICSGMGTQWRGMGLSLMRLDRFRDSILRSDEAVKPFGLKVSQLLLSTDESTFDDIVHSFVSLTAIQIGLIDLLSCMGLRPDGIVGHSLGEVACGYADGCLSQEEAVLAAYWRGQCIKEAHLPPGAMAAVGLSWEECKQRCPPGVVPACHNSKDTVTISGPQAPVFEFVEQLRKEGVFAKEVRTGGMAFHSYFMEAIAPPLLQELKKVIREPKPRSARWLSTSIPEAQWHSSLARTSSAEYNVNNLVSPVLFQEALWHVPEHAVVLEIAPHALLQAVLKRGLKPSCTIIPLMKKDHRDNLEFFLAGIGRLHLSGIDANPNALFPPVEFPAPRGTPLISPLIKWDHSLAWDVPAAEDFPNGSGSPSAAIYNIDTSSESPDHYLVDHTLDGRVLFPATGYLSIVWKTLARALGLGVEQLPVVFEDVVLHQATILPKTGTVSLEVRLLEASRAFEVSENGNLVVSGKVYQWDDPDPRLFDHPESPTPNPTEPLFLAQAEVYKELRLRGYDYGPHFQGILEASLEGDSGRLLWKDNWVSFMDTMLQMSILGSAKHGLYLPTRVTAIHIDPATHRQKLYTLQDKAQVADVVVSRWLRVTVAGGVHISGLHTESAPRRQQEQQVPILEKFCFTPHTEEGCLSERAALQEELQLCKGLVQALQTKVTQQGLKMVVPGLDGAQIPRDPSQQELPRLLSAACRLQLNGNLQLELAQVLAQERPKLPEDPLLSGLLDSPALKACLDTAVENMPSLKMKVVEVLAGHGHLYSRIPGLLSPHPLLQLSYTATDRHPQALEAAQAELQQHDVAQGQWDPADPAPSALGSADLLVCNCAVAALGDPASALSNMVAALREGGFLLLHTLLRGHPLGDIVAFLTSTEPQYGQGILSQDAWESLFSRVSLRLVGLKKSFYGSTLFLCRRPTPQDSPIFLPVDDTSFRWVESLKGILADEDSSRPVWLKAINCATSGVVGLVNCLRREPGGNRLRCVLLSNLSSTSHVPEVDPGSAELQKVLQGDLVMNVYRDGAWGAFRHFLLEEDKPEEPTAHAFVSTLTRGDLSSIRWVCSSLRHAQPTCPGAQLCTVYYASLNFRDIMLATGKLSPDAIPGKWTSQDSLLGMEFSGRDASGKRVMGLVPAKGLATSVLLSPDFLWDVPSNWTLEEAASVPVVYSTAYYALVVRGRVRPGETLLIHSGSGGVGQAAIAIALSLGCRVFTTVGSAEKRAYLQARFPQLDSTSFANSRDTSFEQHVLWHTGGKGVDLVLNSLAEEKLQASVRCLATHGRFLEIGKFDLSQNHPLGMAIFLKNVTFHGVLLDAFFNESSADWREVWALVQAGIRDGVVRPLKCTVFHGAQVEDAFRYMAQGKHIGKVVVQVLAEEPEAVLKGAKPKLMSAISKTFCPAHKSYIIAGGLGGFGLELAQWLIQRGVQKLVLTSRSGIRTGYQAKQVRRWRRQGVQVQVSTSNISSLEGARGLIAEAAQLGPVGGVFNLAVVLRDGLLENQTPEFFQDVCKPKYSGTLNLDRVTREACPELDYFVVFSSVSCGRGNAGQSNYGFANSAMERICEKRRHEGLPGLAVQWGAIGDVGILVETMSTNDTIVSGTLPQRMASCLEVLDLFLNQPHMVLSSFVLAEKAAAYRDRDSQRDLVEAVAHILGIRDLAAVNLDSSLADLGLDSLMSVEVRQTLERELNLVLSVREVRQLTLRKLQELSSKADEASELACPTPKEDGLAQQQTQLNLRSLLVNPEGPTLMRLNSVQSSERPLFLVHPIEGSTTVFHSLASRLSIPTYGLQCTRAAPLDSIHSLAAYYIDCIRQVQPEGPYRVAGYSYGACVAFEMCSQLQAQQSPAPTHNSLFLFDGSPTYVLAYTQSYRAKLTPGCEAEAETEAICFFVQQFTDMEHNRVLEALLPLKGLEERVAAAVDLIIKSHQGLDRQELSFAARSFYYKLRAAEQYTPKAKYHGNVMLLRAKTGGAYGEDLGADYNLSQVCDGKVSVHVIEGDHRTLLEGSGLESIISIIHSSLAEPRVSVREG

Caspase-3 = molecular target: T2, Caspase-3 (Homo sapiens, UniProt P42574); assay type: functional;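 note: Dose-response selectivity test against caspase-3 for candidate inhibitors of sentrin-specific proteases (SENPs)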
T2 sequence (P42574 whole entry): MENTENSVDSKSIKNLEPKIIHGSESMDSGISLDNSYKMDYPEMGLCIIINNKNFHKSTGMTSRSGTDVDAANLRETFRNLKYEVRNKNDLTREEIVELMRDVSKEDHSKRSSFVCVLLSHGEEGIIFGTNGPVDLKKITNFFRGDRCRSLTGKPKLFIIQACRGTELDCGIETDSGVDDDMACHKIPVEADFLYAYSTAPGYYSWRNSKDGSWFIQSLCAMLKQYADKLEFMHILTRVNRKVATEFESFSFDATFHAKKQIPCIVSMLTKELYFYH

Fatty acid synthase [2] = molecular target: T1, Fatty acid synthase; test: FAS thioesterase domain inhibitors, dose response, biochemical, endpoint fluorescence intensity, uHTS hits (AID 624327); assay type: functional;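 note: fluorescence from hydrolysis of an O-methyl fluorescein acyl ester substrate by the enzyme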
[3] = molecular target: T3, Sentrin-specific protease 8 (Homo sapiens, UniProt Q96LD8); assay type: functional;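 note: luminescence read-out of SENP8 inhibition, dose-response confirmation following an ultra-high-throughput screen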
T3 sequence (Q96LD8 whole entry): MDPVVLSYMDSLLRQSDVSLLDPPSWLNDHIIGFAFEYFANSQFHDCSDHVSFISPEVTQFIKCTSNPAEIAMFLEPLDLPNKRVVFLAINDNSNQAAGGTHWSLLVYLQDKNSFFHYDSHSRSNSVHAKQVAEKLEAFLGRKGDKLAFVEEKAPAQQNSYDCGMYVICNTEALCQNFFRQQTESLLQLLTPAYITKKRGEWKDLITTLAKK

[4] = cytotoxicity in MIN6 insulinoma cells, dose response, cytotoxicity control, cell-based, mouse insulinoma (AID 2122); assay type: functional;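 note: confirmatory high-throughput counterscreen run to flag cytotoxic compounds; mouse MIN-6 beta cells carrying an insulin promoter eGFP reporter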
[5] = molecular target: T4, Sentrin-specific protease 7 (Homo sapiens, UniProt Q9BQF6); assay type: functional;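 note: Luminescence-based dose-response confirmation of ultra-high-throughput screening hits, measuring inhibition of SENP7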
T4 sequence (Q9BQF6 whole entry): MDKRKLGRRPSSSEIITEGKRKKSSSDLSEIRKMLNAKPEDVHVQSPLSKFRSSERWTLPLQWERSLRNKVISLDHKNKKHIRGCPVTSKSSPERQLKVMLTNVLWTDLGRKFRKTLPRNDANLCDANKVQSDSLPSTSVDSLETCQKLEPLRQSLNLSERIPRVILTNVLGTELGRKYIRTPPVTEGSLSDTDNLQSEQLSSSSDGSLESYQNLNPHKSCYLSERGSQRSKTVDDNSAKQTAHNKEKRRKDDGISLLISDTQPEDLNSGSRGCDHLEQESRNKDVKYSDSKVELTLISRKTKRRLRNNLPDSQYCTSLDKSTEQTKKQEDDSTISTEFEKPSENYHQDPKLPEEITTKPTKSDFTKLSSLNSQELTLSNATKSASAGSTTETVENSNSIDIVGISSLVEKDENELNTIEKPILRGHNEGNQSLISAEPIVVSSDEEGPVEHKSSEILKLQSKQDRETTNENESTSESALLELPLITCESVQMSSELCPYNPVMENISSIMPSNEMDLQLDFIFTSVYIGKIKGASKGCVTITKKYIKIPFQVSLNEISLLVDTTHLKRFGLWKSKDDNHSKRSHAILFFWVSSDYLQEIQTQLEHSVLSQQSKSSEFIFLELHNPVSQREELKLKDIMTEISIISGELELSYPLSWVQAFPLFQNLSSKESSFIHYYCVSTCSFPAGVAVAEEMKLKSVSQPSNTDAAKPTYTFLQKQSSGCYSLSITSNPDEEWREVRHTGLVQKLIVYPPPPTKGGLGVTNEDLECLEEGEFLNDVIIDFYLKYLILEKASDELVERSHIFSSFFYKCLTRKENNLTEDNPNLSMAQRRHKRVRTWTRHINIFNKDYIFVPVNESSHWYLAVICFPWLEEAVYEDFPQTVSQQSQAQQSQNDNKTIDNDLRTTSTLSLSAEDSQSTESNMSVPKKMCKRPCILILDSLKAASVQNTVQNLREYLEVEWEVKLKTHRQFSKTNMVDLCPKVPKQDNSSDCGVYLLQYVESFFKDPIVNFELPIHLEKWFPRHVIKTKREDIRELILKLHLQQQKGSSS

[6] = insulin promoter down-regulators in MIN6 cells, imaging, high-content screening, mouse beta cells (AID 1628); assay type: functional
[7] = molecular target: T5, Sentrin-specific protease 6 (Homo sapiens, UniProt Q9GZR1); assay type: functional;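 note: Luminescence-based dose-response confirmatory assay of SENP6 inhibition, following up an ultra-high-throughput screen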
T5 sequence (Q9GZR1 whole entry): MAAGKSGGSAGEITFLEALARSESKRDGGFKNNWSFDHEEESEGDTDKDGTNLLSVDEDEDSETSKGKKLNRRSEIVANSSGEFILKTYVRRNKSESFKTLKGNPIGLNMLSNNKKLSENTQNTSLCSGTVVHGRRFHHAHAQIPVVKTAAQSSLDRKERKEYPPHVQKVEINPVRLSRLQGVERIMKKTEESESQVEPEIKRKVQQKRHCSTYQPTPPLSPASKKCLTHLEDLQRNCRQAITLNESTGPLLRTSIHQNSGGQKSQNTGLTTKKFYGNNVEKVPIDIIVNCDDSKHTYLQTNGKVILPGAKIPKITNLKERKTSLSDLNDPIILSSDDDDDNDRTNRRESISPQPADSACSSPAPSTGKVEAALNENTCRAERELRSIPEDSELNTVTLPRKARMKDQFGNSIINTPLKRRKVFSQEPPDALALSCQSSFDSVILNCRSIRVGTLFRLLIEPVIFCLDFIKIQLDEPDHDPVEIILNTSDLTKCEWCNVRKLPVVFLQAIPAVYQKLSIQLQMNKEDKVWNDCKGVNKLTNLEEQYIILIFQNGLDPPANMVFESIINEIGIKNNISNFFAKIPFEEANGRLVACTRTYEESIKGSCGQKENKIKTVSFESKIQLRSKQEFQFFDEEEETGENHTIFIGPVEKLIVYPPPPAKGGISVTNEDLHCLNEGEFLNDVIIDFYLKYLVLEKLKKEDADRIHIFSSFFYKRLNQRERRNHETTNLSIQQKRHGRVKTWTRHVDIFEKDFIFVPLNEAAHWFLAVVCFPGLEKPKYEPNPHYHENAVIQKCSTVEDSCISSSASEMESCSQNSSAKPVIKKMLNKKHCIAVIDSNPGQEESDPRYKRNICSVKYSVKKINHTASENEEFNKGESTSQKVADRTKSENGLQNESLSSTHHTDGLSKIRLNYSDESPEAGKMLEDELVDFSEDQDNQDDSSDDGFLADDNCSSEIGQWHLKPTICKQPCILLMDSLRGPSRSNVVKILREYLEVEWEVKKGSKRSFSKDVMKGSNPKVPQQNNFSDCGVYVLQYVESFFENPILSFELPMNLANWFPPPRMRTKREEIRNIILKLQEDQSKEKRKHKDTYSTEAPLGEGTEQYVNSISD

[8] = inhibitors of PGC1a acetylation in cells, dose response, cell-based, cherry-picked samples (AID 720514); assay type: functional;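 note: potency may reflect raised or lowered acetylation signal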
[9] = molecular target: T6, Microphthalmia-associated transcription factor (Homo sapiens, UniProt O75030); test: TRPM1 promoter luciferase signal decrease, dose response, MITF inhibitor project, cell-based, SK-MEL-5, cherry-picked, set 3 (AID 493073); assay type: functional
T6 sequence (O75030 whole entry): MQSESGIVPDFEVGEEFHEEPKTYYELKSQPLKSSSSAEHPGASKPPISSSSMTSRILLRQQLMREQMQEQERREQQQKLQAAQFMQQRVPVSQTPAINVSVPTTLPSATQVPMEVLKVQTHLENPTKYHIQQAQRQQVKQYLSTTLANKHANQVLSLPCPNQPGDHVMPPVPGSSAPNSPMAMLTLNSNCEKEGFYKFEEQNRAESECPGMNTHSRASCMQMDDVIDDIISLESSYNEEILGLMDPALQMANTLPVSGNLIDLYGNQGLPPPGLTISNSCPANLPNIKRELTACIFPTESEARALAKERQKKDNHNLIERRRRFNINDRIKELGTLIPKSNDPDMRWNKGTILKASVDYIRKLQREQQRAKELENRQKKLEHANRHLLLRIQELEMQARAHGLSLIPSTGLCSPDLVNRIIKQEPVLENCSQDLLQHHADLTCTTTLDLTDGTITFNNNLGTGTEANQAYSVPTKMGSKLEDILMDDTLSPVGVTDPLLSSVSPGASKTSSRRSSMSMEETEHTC

A-375 = test: MITF: Counter assay: A375 proliferation Measured in Cell-Based System Using Plate Reader - 2084-03_Inhibitor_Dose_DryPowder_Activity. [Related pubchem assays (depositor defined):AID488944]; assay type: functional; settings: Homo sapiens
Vero = test: cells; assay type: functional; settings: Chlorocebus sabaeus
[10] = HepG2 cell cytotoxicity, dose response, cytotoxicity control for non-replicating M. tuberculosis project (AID 489018); assay type: functional; settings: Mycobacterium tuberculosis
[11] = THP-1 cell cytotoxicity, dose response, cytotoxicity control for non-replicating M. tuberculosis project (AID 489025); assay type: functional
HEK293 [12] = test: cells; assay type: functional, cell-based; settings: Homo sapiens
HEK293 [13] = test: cells; assay type: functional, cell-based; settings: Homo sapiens; remark: listed apart in the source
cells = assay type: functional
HEK293 [14] = test: Fluorescence-based counterscreen for potentiators or agonists of NPY-Y2: cell-based high-throughput dose response assay to identify inhibitors of cyclic nucleotide gated ion channel (CNGC) activity. In this assay, the parental HEK293 cell line transfected with a cyclic-nucleotide gated ion channel (CNGC)-based cAMP sensor is used to measure inhibition of isoproterenol-induced CNGC activity by test compound.; assay type: functional; settings: Homo sapiens
[15] = molecular target: Nucleotide-binding oligomerization domain-containing protein 2 (Homo sapiens, UniProt Q9HC29); test: NOD2 signaling inhibitors, cell-based, luminescence, uHTS, HEK293 (AID 1566); assay type: functional
Nucleotide-binding oligomerization domain-containing protein 2, sequence (Q9HC29 whole entry, the tested form may be a part): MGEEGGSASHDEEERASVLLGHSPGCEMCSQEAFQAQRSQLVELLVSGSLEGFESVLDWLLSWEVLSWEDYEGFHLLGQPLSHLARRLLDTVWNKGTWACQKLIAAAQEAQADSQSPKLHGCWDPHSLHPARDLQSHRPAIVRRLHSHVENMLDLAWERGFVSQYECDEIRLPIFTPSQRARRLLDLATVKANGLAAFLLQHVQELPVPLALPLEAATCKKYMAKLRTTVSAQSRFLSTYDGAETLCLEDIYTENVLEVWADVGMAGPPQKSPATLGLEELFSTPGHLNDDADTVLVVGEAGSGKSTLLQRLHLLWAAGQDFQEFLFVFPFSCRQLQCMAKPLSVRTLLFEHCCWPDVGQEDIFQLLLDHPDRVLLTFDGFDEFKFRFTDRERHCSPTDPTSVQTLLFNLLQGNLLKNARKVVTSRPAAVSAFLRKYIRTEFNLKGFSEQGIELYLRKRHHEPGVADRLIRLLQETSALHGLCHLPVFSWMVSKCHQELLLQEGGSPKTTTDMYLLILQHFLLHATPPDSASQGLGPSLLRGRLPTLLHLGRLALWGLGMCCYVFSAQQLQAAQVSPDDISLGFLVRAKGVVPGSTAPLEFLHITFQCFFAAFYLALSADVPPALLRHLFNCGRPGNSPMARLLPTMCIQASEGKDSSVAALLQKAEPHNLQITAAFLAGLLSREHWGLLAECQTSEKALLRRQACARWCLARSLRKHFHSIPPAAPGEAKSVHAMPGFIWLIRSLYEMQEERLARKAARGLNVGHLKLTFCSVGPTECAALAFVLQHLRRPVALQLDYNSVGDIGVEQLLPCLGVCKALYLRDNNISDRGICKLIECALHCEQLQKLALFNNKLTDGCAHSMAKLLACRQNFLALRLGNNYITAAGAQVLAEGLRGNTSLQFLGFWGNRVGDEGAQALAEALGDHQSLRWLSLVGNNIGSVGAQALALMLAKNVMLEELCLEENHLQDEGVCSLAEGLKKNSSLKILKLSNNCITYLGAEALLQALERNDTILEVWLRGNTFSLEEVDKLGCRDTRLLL

[16] = molecular target: T7, Neuropeptide Y receptor type 2 (Homo sapiens, UniProt P49146); test: Fluorescence-based cell-based high-throughput dose response assay for agonists of NPY-Y2. [Related pubchem assays: 1703 (Screening assay (CNGC inhibitors).), 1359 (Screening assay (NPY-Y2 potentiators or agonists).), 1304 (Screening assay (NPY-Y1 potentiators or agonists).), 1710 (Screening assay (NPY-Y2 agonists).), 1791 (Summary AID.)]; assay type: functional
T7 sequence (P49146 whole entry): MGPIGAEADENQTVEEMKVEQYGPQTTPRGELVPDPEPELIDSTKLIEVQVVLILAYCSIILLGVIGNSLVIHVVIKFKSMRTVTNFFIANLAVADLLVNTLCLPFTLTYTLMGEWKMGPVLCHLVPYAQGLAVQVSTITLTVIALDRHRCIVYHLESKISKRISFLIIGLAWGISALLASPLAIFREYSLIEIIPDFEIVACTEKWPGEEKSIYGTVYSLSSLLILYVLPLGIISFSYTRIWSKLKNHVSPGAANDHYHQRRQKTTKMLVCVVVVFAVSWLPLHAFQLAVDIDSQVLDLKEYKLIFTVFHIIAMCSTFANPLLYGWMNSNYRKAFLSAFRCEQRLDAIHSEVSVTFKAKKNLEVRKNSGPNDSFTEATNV

[17] = molecular target: T8, Neuropeptide Y receptor type 1 (Homo sapiens, UniProt P25929); test: Fluorescence-based counterscreen for agonists of NPY-Y2: cell-based high-throughput dose response assay for agonists of NPY-Y1.; assay type: functional
T8 sequence (P25929 whole entry): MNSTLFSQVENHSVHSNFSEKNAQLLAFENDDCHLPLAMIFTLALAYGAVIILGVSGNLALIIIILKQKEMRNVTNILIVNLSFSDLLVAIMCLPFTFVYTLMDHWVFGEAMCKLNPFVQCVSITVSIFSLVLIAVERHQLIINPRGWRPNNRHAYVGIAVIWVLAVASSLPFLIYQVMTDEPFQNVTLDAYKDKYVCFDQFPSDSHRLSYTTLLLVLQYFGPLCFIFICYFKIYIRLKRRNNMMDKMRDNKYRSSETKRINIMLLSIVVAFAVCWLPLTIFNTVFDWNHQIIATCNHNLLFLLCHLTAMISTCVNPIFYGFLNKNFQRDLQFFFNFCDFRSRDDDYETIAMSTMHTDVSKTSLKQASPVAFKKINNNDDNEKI

HEK293 [18] = test: cells; assay type: functional, cell-based; settings: Homo sapiens; remark: listed apart in the source
HEK293 [19] = test: NOD1 signaling inhibitors, primary screen, cell-based, luminescence, uHTS (AID 1578); assay type: functional; settings: Homo sapiens
HEK293 [20] = test: NOD2 signaling inhibitors in MDP-stimulated cells, cell-based, uHTS, luminescence (AID 2001); assay type: functional; settings: Homo sapiens

For `O=C(c1ccc(Cl)cc1)N1CCN(c2ncccc2C(F)(F)F)CC1`, the AC50 (Candida albicans) was 0.217 µM (active).

With `O=C(Nc1ccc(OC(F)(F)F)cc1)Nc1cccc([N+](=O)[O-])c1` the AC50 (INS1) was 2.8 µM (active), the IC50 (Fatty acid synthase [1]) was 6.14 µM (active) and the IC50 (Caspase-3) was 89.9 µM (active). For the same compound, the IC50 (Fatty acid synthase [2]) was 6.74 µM (active), the IC50 [3] was > 100 µM (inactive) and the IC50 [4] was 1.27 µM (active). The IC50 [5] was 8.57 µM (active), the IC50 [6] was 1.42 µM (active) and the IC50 [7] was > 100 µM (inactive).

In the case of `Cc1cccc(NC(=O)CNC(=O)Cn2ncc(Cl)c(Cl)c2=O)c1C`, the AC50 [8] is reported as 6.82 µM (active), the AC50 [9] is reported as 13.4 µM (active) and the AC50 (A-375) is reported as 20.5 µM (active).

In the case of `O=C(N/N=C/c1cccc2cccnc12)c1ccccc1O`, the CC50 (Vero) is reported as 18.8 µM (active), the CC50 [10] is reported as > 20 µM (active) and the CC50 [11] is reported as 11.7 µM (active). For the same compound, the IC50 (HEK293 [12]) was > 20 µM (inactive), the IC50 (HEK293 [13]) was 6.52 µM (active) and the IC50 (cells) was 0.97 µM (active). For the same compound, the EC50 (HEK293 [14]) was > 35.4 µM (not active), the EC50 [15] was > 20 µM (inactive) and the EC50 [16] was > 35.4 µM (not active). The AC50 [9] was 24.8 µM (active), the EC50 [17] was > 35.4 µM (not active) and the IC50 (HEK293 [18]) was > 20 µM (inactive). The EC50 (HEK293 [19]) was > 20 µM (inactive) and the IC50 (HEK293 [20]) was 5.04 µM (inactive).
